Measurements: patent US7465745B2, “Cathepsin S inhibitors” (Boehringer Ingelheim Pharmaceuticals, Inc., priority 2003, dated 2008)

Molecular target: T1, Human recombinant cathepsin S (Homo sapiens, UniProt P25774)
T1 construct: made in house; host or cells: Sf9 insect cells (baculovirus, pFastBac1)
Test: Inhibition of Cathepsin S
Type: biochemical
Conditions: 10 nM enzyme, pH 6.5, 37° C., fluorescence 360/460 nm

T1 sequence (P25774 115-331): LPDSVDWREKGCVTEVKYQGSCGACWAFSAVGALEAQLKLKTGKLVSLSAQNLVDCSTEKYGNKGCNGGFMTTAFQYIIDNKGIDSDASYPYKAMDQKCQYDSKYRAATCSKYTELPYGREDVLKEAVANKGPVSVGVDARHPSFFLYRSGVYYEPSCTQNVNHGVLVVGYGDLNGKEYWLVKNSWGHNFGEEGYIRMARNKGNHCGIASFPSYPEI

IC50: > 0.1 µM
Compound: CCC(C)(C)CC[C@@H](NC(=O)N1CCOCC1)C(=O)NC1(C#N)CCN(C)CC1 [Morpholine-4-carboxylic acid [(R)-1-(4-cyano-1-methyl-piperidine-4-ylcarbamoyl)-4,4-dimethyl-hexyl]-amide]
